Measured values from patent publication US6737383B1, “Herbicidal oxadiazolidines” (priority 1999, dated 2004).

Assays:
cocklebur = test: Test B pre/postemergence cocklebur; assay type: in vivo, Xanthium strumarium
How it was run: (§1)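 Herbicidal effect was estimated by eye on a ten-point control scale after plants spent twelve to sixteen days in a greenhouse following soil or foliar treatment. Foliar sprays targeted plants at one to four leaves; all doses were formulated in a non-phytotoxic solvent with surfactant.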

crabgrass = test: Test B pre/postemergence crabgrass; assay type: in vivo, Digitaria sanguinalis
How it was run: as §1

corn = test: Test B pre/postemergence corn; assay type: in vivo, Zea mays
How it was run: as §1

soybean = test: Test B pre/postemergence soybean; assay type: in vivo, Glycine max
How it was run: as §1

pigweed = test: Test B pre/postemergence pigweed; assay type: in vivo, Amaranthus retroflexus
How it was run: as §1

sugar beet = test: Test B pre/postemergence sugar beet; assay type: in vivo, Beta vulgaris
How it was run: as §1

bamyardgrass = test: Test B flood test barnyardgrass; assay type: in vivo, Echinochloa crus-galli
How it was run: (§2)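 Plants were grown to the 2-leaf stage before treatment with test chemical, then held in a greenhouse for twelve to sixteen days. Injury was visually rated against untreated controls on a 0–10 scale, where 0 is no effect and 10 is complete control.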

surinam grass = test: Test B pre/postemergence surinam grass; assay type: in vivo, Brachiaria decumbens
How it was run: as §1

duck salad = test: Test B flood test duck salad; assay type: in vivo, Heteranthera limosa
How it was run: as §2

rape = test: Test B pre/postemergence rape; assay type: in vivo, Brassica napus
How it was run: as §1

bedstraw = test: Test B pre/postemergence bedstraw; assay type: in vivo, Galium aparine; details: Preemergence
How it was run: as §1

morningglory = test: Test B pre/postemergence morningglory; assay type: in vivo, Ipomoea hederacea
How it was run: as §1

velvetleaf = test: Test B pre/postemergence velvetleaf; assay type: in vivo, Abutilon theophrasti
How it was run: as §1

rice = test: Test B flood test rice; assay type: in vivo, Oryza sativa
How it was run: as §2

smallflower flatsedge = test: Test B flood test smallflower flatsedge; assay type: in vivo, Cyperus difformis
How it was run: as §2

wild oat = test: Test B pre/postemergence wild oat; assay type: in vivo, Avena fatua
How it was run: as §1

[1] = Postemergence, Rate 62 g/ha, scale 0 to 10, 0 is no effect, 10 is complete control
[2] = Postemergence, Rate 125 g/ha, scale of 0 to 10 where 0 is no effect and 10 is complete control
[3] = Postemergence, Rate 250 g/ha, scale of 0 to 10, 0 is no effect, 10 is complete control
[4] = Postemergence, Rate 500 g/ha, scale of 0 to 10 where 0 is no effect and 10 is complete control
[5] = Preemergence, Rate 62 g/ha, scale 0 to 10 (0 no effect, 10 complete control)
[6] = Preemergence, Rate 125 g/ha, scale of 0 to 10 where 0 is no effect and 10 is complete control
[7] = Preemergence, Rate 250 g/ha, scale 0 to 10 (0 no effect, 10 complete control)
[8] = Preemergence, Rate 500 g/ha, scale of 0 to 10 where 0 is no effect and 10 is complete control
[9] = Rate 62 g/ha, flood test species, Pre-emergence, visual evaluation after twelve to sixteen days
[10] = Rate 125 g/ha, under heading Pre-emergence, flood test species, visual evaluation after twelve to sixteen days
[11] = Rate 250 g/ha, Pre-emergence (flood test species), scale 0 to 10, 0 is no effect, 10 is complete control
[12] = Rate 500 g/ha, Pre-emergence section of Table B, 0 to 10 scale (0 no effect, 10 complete control)

## COCCn1c(=O)on(C(=O)N(c2ccccc2)C(C)C)c1=O [Compound 631]
cocklebur; [1]
  Plant response rating, Cocklebur: 0
cocklebur; [2]
  Plant response rating, Cocklebur: 0
cocklebur; [3]
  Cocklebur plant response rating: 0
cocklebur; [4]
  Plant response rating, Cocklebur: 2
cocklebur; [5]
  Cocklebur plant response rating: 0
cocklebur; [6]
  Cocklebur plant response rating: 0
cocklebur; [7]
  Plant response rating, Cocklebur: 0
cocklebur; [8]
  Plant response rating, Cocklebur: 2
crabgrass; [1]
  Plant response rating, Crabgrass: 8
crabgrass; [2]
  Plant response rating, Crabgrass: 9
crabgrass; [3]
  Crabgrass plant response rating: 9
crabgrass; [4]
  Plant response rating, Crabgrass: 9
crabgrass; [5]
  Crabgrass plant response rating: 7
crabgrass; [6]
  Crabgrass plant response rating: 7
crabgrass; [7]
  Plant response rating, Crabgrass: 9
crabgrass; [8]
  Plant response rating, Crabgrass: 9
corn; [1]
  Plant response rating, Corn: 5
corn; [2]
  Plant response rating, Corn: 5
corn; [3]
  Corn plant response rating: 6
corn; [4]
  Plant response rating, Corn: 8
corn; [5]
  Corn plant response rating: 5
corn; [6]
  Corn plant response rating: 6
corn; [7]
  Plant response rating, Corn: 8
corn; [8]
  Plant response rating, Corn: 9
soybean; [1]
  Plant response rating, Soybean: 5
soybean; [2]
  Plant response rating, Soybean: 5
soybean; [3]
  Soybean plant response rating: 8
soybean; [5]
  Soybean plant response rating: 2
soybean; [6]
  Soybean plant response rating: 5
soybean; [7]
  Plant response rating, Soybean: 9
soybean; [8]
  Plant response rating, Soybean: 9
pigweed; [1]
  Plant response rating, Redroot pigweed: 0
pigweed; [2]
  Plant response rating, Redroot pigweed: 0
pigweed; [5]
  Redroot pigweed plant response rating: 7
pigweed; [6]
  Redroot pigweed plant response rating: 9
pigweed; [7]
  Plant response rating, Redroot pigweed: 10
pigweed; [8]
  Plant response rating, Redroot pigweed: 10
Sugar beet; [1]
  Plant response rating, Sugarbeets: 0
Sugar beet; [2]
  Plant response rating, Sugarbeets: 0
Sugar beet; [3]
  Sugarbeets plant response rating: 0
Sugar beet; [5]
  Sugarbeets plant response rating: 0
Sugar beet; [6]
  Sugarbeets plant response rating: 3
Sugar beet; [7]
  Plant response rating, Sugarbeets: 4
Sugar beet; [8]
  Plant response rating, Sugarbeets: 8
bamyardgrass; [9]
  Plant response rating, Barnyardgrass (0 to 10 scale, 0 is no effect, 10 is complete control): 0
bamyardgrass; [10]
  Barnyardgrass plant response rating (0 to 10 scale, 0 is no effect, 10 is complete control): 1
bamyardgrass; [11]
  Barnyardgrass plant response rating: 4
bamyardgrass; [12]
  Barnyardgrass plant response rating: 4
Surinam grass; [1]
  Plant response rating, B. signalgrass: 1
Surinam grass; [2]
  Plant response rating, B. signalgrass: 3
Surinam grass; [3]
  B. signalgrass plant response rating: 6
Surinam grass; [4]
  Plant response rating, B. signalgrass: 8
Surinam grass; [5]
  B. signalgrass plant response rating: 6
Surinam grass; [6]
  B. signalgrass plant response rating: 7
Surinam grass; [7]
  Plant response rating, B. signalgrass: 10
Surinam grass; [8]
  Plant response rating, B. signalgrass: 10
Duck salad; [9]
  Plant response rating, Ducksalad (0 to 10 scale, 0 is no effect, 10 is complete control): 0
Duck salad; [10]
  Ducksalad plant response rating (0 to 10 scale, 0 is no effect, 10 is complete control): 0
Duck salad; [11]
  Ducksalad plant response rating: 0
Duck salad; [12]
  Ducksalad plant response rating: 0
rape; [1]
  Plant response rating, Rape: 0
rape; [2]
  Plant response rating, Rape: 0
rape; [3]
  Rape plant response rating: 2
rape; [4]
  Plant response rating, Rape: 2
rape; [5]
  Rape plant response rating: 0
rape; [6]
  Rape plant response rating: 0
rape; [7]
  Plant response rating, Rape: 6
rape; [8]
  Plant response rating, Rape: 8
bedstraw; Rate 62 g/ha, scale 0 to 10 (0 no effect, 10 complete control)
  Bedstraw plant response rating: 0
bedstraw; Rate 125 g/ha, scale of 0 to 10 where 0 is no effect and 10 is complete control
  Bedstraw plant response rating: 0
bedstraw; Rate 250 g/ha, scale 0 to 10 (0 no effect, 10 complete control)
  Plant response rating, Bedstraw: 0
morningglory; [1]
  Plant response rating, Morningglory: 0
morningglory; [2]
  Plant response rating, Morningglory: 4
morningglory; [3]
  Morningglory plant response rating: 4
morningglory; [4]
  Plant response rating, Morningglory: 10
morningglory; [5]
  Morningglory plant response rating: 0
morningglory; [6]
  Morningglory plant response rating: 0
morningglory; [7]
  Plant response rating, Morningglory: 4
morningglory; [8]
  Plant response rating, Morningglory: 7
velvetleaf; [1]
  Plant response rating, Velvetleaf: 4
velvetleaf; [2]
  Plant response rating, Velvetleaf: 4
velvetleaf; [3]
  Velvetleaf plant response rating: 7
velvetleaf; [5]
  Velvetleaf plant response rating: 6
velvetleaf; [6]
  Velvetleaf plant response rating: 7
velvetleaf; [7]
  Plant response rating, Velvetleaf: 7
velvetleaf; [8]
  Plant response rating, Velvetleaf: 9
rice; [9]
  Plant response rating, Rice (0 to 10 scale, 0 is no effect, 10 is complete control): 0
rice; [10]
  Rice plant response rating (0 to 10 scale, 0 is no effect, 10 is complete control): 0
rice; [11]
  Rice plant response rating: 0
rice; [12]
  Rice plant response rating: 0
Smallflower flatsedge; [9]
  Plant response rating, S. Flatsedge (0 to 10 scale, 0 is no effect, 10 is complete control): 0
Smallflower flatsedge; [10]
  S. Flatsedge plant response rating (0 to 10 scale, 0 is no effect, 10 is complete control): 0
Smallflower flatsedge; [11]
  S. Flatsedge plant response rating: 0
Smallflower flatsedge; [12]
  S. Flatsedge plant response rating: 0
Wild oat; [1]
  Plant response rating, Wild oats: 0
Wild oat; [2]
  Plant response rating, Wild oats: 0
Wild oat; [3]
  Wild oats plant response rating: 1
Wild oat; [5]
  Wild oats plant response rating: 0
Wild oat; [6]
  Wild oats plant response rating: 2
Wild oat; [7]
  Plant response rating, Wild oats: 8
Wild oat; [8]
  Plant response rating, Wild oats: 9
